Data published in patent US10688153B2, “Peptides and method for treatment of cardiac arrest” (THE BOARD OF TRUSTEES OF THE UNIVERSITY OF ILLINOIS, priority 2015, dated 2020).
Ends that are not written are not given here.

Legend:
[1] = tested on: C57BL6 mice; experiment: Potassium-induced SCA protocol, nicotinamide during CPR plus TAT-PTEN9c after ROSC (Example 3); type: in vivo, mouse; conditions: about 12 minute down time
Description: The benefit of co-administration of nicotinamide (NAM) with TAT-PTEN9c was evaluated. C57BL6 mice were subjected to an established potassium-induced 8-minute SCA protocol. Nicotinamide (Vitamin B3) was administered during CPR and TAT-PTEN9c was administered after ROSC with about a 12 minute down time for each group.

[2] = target: PTEN (Homo sapiens, UniProt P60484); conditions: cited from earlier work
[3] = tested on: mouse model of SCA; conditions: Li et al. 2015; cited from earlier work
[4] = tested on: mouse model of SCA; experiment: Blood sorbitol and taurine concentrations in mouse model of SCA; type: in vivo
Text: Metabolism alteration and energy production are critical outcomes following SCA. Using a mouse model of SCA (Li, et al. (2015) Am. J. Physiol. Heart Circ. Physiol. 308:H1414-22), several metabolic compounds were identified as diagnostic markers for use in guiding the selection of treatment protocols (e.g., active cooling, therapeutic hypothermia, or modified PDZ binding domain peptide therapies).

[5] = tested on: cell death; conditions: Zhu et al. 2014, cited from earlier work
[6] = tested on: Akt phosphorylation in mouse cardiomyocytes; experiment: Western blot of Akt phosphorylation in mouse cardiomyocytes exposed to H2O2 or IGF-1; type: cell-based
Text: (§1) Mouse cardiomyocytes were isolated from 1-3 day old mouse pups according to known methods (Zhu, et al. (2014) PLoS One 9:e95622). Western blot analysis was used to determine the efficacy of a representative peptide of the invention (TAT-PTEN9c) for enhancing Akt phosphorylation in mouse cardiomyocytes exposed to oxidant (H2O2) or IGF-1. C57BL6 mice were subjected to an established potassium-induced 8-minute SCA protocol (Li, et al. (2015) Am. J. Physiol. Heart Circ. Physiol. 308:H1414-22). Mean arterial blood pressure (MAP), end-tidal CO2 (EtCO2), body temperature and electrocardiogram (ECG) were recorded until […] after successful cardiopulmonary resuscitation (CPR). TAT-PTEN9c (7.5 mg/kg) or saline was given intravenously (IV) immediately after ROSC. A mouse survival curve was generated by Kaplan-Meyer analysis. IV administration of TAT-GFP was used to measure the kinetics of heart and brain tissue TAT protein delivery.

[7] = tested on: C57BL6 mice; experiment: Potassium-induced 8-minute SCA protocol, peptide IV immediately after ROSC (Example 1); type: in vivo, mouse
Text: as §1

[8] = tested on: C57BL6 mice; experiment: Potassium-induced 8-minute SCA protocol, timing of administration during CPR or after ROSC (Example 2); type: in vivo, mouse; conditions: for MAP: 7.5 mg/kg IV administered after ROSC
Description: To determine timing of modified peptide administration, TAT-PTEN9c was administrated during CPR or after ROSC. C57BL6 mice were subjected to an established potassium-induced 8-minute SCA protocol (Li, et al. (2015) Am. J. Physiol. Heart Circ. Physiol. 308:H1414-22). Mean arterial blood pressure (MAP) was recorded until 4 hours after successful CPR. TAT-PTEN9c (7.5 mg/kg) or saline (NS) was given intravenously (IV) during CPR and immediately after ROSC.

[9] = 240 minutes, 7.5 mg/kg IV immediately after ROSC

Chain of PTEN (P60484 whole entry, species assumed): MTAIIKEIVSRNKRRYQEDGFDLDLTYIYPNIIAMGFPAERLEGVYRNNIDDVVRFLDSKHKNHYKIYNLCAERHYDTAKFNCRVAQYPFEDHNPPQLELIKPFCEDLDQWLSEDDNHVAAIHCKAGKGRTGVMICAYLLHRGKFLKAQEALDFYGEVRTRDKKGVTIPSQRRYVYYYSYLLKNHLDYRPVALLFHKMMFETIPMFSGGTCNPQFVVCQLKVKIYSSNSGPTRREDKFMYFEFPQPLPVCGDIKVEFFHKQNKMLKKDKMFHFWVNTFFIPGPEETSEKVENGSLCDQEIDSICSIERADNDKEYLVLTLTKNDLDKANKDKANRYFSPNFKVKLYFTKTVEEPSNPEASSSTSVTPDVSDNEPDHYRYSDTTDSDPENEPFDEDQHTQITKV

NC(=O)c1cccnc1 [nicotinamide]
survival time of all mice [1]: less than 1 hours

O=C(O)c1ncccc1O.O=C(O)c1ncccc1O.[O]=[V][O-] [VO-OHpic]
inhibition of PTEN [2]: potent inhibition
recovery and survival [3]: improved recovery and survival
blood sorbitol concentration [4]: reduced
blood taurine concentration [4]: reduced
reduction in cell death ([5]; I/R injury): almost four-fold reduction
phosphorylated Akt [5]: significant increase

YGRKKRRQRRRDQHSQITKV (not fully specified (C-terminus)) [TAT-PTEN9c, 20-residue peptide: Tat transduction domain plus C-terminal 9 residues of mouse PTEN]
time to Akt activation after administration ([6]; FIG. 1C): ≤ 10 min
Akt activation in response to H2O2 ([6]; H2O2, concentration-dependent, FIG. 1A): enhances Akt activation
Akt activation in response to IGF-1 ([6]; IGF-1, concentration-dependent, FIG. 1B): enhances Akt activation
brain tissue sorbitol content ([7]; 15 (R15) and 30 (R30) minutes after ROSC, vs saline control (NS), FIG. 3): significantly decreased
EtCO2 [7, 9]: 36.2 ± 6.7 mmHg
Heart Rate [7, 9]: 502.0 ± 62.2 bpm
MAP [7, 9]: 52.7 ± 9.3 mmHg
Survival (%) [7, 9]: 66.7%
survival of mice after cardiac arrest ([7]; administered immediately after ROSC, vs saline control, FIG. 4): significantly improves survival
resuscitation rate ([8]; 7.5 mg/kg IV administered during CPR): no improvement
MAP ([8]; 30 minutes after ROSC): 65.2±1.1 mmHg
MAP ([8]; 4 hours after ROSC, p<0.05 vs NS): 49.9±0.7 mmHg
